Read-outs that look alike come from different tables or passages of the source.
Columns and labels:
MyLa cells [1] = test: cells; format: cell-based, human; conditions: trypan blue, column group printed 'AN-7', MyLa
Hut78 cells [2] = format: cell-based, homo sapiens; conditions: trypan blue; for IC50: column group printed 'SAHA'
SPBL = test: FACS annexin V/PI apoptosis ex vivo, PBL of SS patients; format: cell-based, human; conditions: PBL from 2 SS patients, SAHA 4 μM or AN-7 200 μM, 48 h
Description: The cells were then stained with annexin V and PI and analysed by FACS.

[3] = system: caspase 3, PARP, P21 and Bax in MF/SS cell lines; test: Western blot of pro-apoptotic proteins in MF/SS cell lines; format: cell-based, human; conditions: MyLa and Hut78, SAHA 10 μM or AN-7 300 μM
Description: However, there was a stronger signal in response to SAHA.

HDAC1 = test: Western blot of HDAC1 protein expression in MF/SS cell lines; format: cell-based, human; conditions: MyLa and Hut78, SAHA 10 μM or AN-7 300 μM
[4] = system: p-KAP1, γH2AX in MyLa cells; test: Western blot of p-KAP1 and γH2AX, MyLa cells; format: cell-based, human; conditions: 1 mM AN-7 2 h, 1 μM Dox 1 h, or AN-7 1 h followed with Dox 1 h
Protocol: (§1) Cell fraction—3×10^6cells were suspended in 100 μl hypotonic buffer (HEPES 10 mM, KCl 5 mM, MgCl2 1.5 mM, DTT 1 mM, NP-40 1%), incubated for 15 min in ice, centrifuged and the supernatant fraction was subjected to western blot of pKAP1 and actin. The sediment was washed once with hypotonic buffer followed by suspension in 100 μl of hypertonic buffer (HEPES 10 mM, NaCl 500 mM, MgCl2 1.5 mM, DTT 1 mM, NP-40 1%), incubated for 15 min in ice, centrifuged, supernatant was removed and the sediment was boiled, vortexed for 10 min at 95° C. with sample buffer ×3 for 3 times and subjected to western blot of γH2AX.
(§2) Whole cells extract—Cells were suspended in lysis buffer (Tris-HCl 50 mM, NaCl 150 mM, NP-40 0.5%), incubated for lh on ice, centrifuged and the supernatant was collected. Protease and Phosphatase inhibitors were added to all buffers at a 1:100 dilutions. […] Bands were visualized by Odyssey Infrared Imaging System and the bands intense were normalized to actin.
(§3) Next, cells were fractionated and fraction lysate were subjected to western blot of phosphorylated KAP1 (p-KAP1), γH2AX and actin.

[5] = system: p-KAP1, γH2AX in Hut78 cells; test: Western blot of p-KAP1 and γH2AX, Hut78 cells; format: cell-based, homo sapiens; conditions: 0.5 mM AN-7 2 h, 0.5 μM Dox 1 h, or AN-7 1 h followed with Dox 1 h
Protocol: as §1, §2, §3

[6] = system: NBS1, Rad51, Mre11, DNA-PK, Ku70 in MyLa cells; test: Western blot of DSB repair proteins, MyLa cells; format: cell-based, human; conditions: 24 and 48 h post treatment
Protocol: as §2
(§4) To address whether AN-7 interfere in DSBs repair by regulating the expression of DSBs repair proteins, Immunoblot was applied for those proteins. MyLa and Hut78 cells were treated as previously described and subjected to western blot of DSBs repair proteins.

[7] = system: NBS1, Rad51, Mre11, DNA-PK, Ku70 in Hut78 cells; test: Western blot of DSB repair proteins, Hut78 cells; format: cell-based, homo sapiens; conditions: Hut78, 18 and 24 h post treatment
Protocol: as §2, §4

U2OS GFP-reporter cells = test: HR activity assay, U2OS GFP-reporter cells; format: cell-based; conditions: 1 mM AN-7 for 48 h
Protocol: U2OS cells with the linearized HRsub reporter (Puget et al. DNA Repair 4 (2005) 149-161) were transfected with: SceI-expression vector pCBASce; pCBA vector without Sce-I; and GFP control vector, each one separately with FuGENE 6 transfection reagent (Promega). 24 h later 2×10̂5 cells/ml were seeded in 35 mm plates and 6 h later were treated with 1 mM AN-7 for 48 hr. Cells were washed with PBS then harvested with Trypsin solution, neutralized with PBS+10% FBS, centrifuged in 1200 rpm for 10 min, suspended with PBS+10% FBS and GFP-positive cells were quantified by flow cytometry analysis. Cells excitation was done with 488nm laser; the reading of FL1 values was done in 530 nm. Percent of cells with repaired DSB induced by Sce-I via HR are presented as percent of GFP positive cells which are calculated as follow: (%GFP of cells expressing Sce-I pCBASce)−(%GFP of cells expressing empty pCBASce)/(%GFP of cells expressing GFP control vector).
The role of AN-7 in suppressing directly the repair of DSBs, was verified. To this end, one of the machinery for repairing DSBs, the HR repair machinery, was tested. […] The U2OS-GFP cells were transfected with I-SceI plasmid for 24 hours, treated then with AN-7 for another 48 h and then analyzed for GFP expression in FACS analysis. […]

MyLa cells [8] = test: MTT-based viability assay, MyLa cells
Protocol: (§5) MyLa cells (10^4), Hut78 cells (5×10^3), SPBL and NPBL (10^5) were seeded in triplicate in 96-well plates. The PBL were activated with PHA 40 μg/10^6 cell for 24 h before the experiment. […] The cells were then placed in a humidified incubator for 72 h. […] The MTT reagent was added to a final concentration of 0.5 mg/mL, and the cells were incubated for an additional 4 h. Thereafter, 0.1N HCl in isopropanol was added, and cell viability was determined using an ELISA reader (PowerWaveX, BioTek, Winooski, Vt., USA) at a 570 nm wavelength with background subtraction at 630-690 nM.
(§6) Viability and apoptosis curves were based on the averages of at least 3 independent experiments. The standard error (SE) was calculated for each group as follows: SE=standard deviation/√n, where n is number of values in the group. […] Significant differences in selectivity among groups were analyzed by comparing the IC50 values using two-tailed unpaired t-test using Excel or by comparing the differential effects for all the dose response titrations using ANOVA with repeated measures.

Hut78 cells [9] = test: MTT-based viability assay, Hut78 cells
Protocol: as §5, §6

[10] = system: Sezary syndrome Peripheral blood lymphocytes SPBL; test: MTT-based viability assay, Sezary PBL (SPBL); conditions: for IC50: Sezary PBL
Protocol: (§7) Peripheral blood was diluted 1:3 in sterile phosphate-buffered saline (PBS). Lymphoprep was added in the same blood volume with a Pasteur pipette, and the sample was centrifuged. PBL were collected from the white median interphase, rinsed twice with PBS, and suspended in RPMI medium with 10 mM HEPES to 2×10^6 cells/mL.
as §5, §6
(§8) NPBL were treated at same molar ratio as SPBL.

NPBL = test: MTT-based viability assay, normal PBL (NPBL); conditions: for IC50: Normal PBL
Protocol: as §7, §5, §6, §8

Acetylated H3 = test: Western blot of acetylated H3 in nuclear lysate of MF/SS cell lines; conditions: MyLa and Hut78, SAHA 10 μM or AN-7 300 μM
Protocol: Cells (5×10^6) were suspended in 300 μL of cytoplasmic buffer (HEPES 10 mM, KCl 10 mM, EDTA 1 mM, EGTA 1 mM, DTT 1 mM). After 20 min of incubation on ice, the mixture was passed 5 times through a 25-G syringe and then centrifuged briefly to obtain the cytoplasmic supernatant.
The nuclear pellet was suspended in 40-60 μL of nuclear buffer (cytoplasmic buffer+10% glycerol), incubated with shaking at 4° C. for 15 min, and centrifuged. The supernatant was collected as a nuclear fraction.
Cell extracts were separated by SDS-polyacrylamide gel electrophoresis (SDS-PAGE), transferred to a nitrocellulose membrane, and subjected to immunoblot with primary and secondary antibodies, as listed in table 1.

MyLa cells [11] = test: FACS analysis with annexin V and PI staining (apoptosis), MyLa cells
Protocol: (§9) The cells (2.5×10^6 cells/mL) were washed in PBS and binding buffer and were resuspended in binding buffer, and of fluorescein isothiocyanate-conjugated annexin V (5 μL) was added to a 100 μL cell suspension for 10-15 min. Incubation was performed at room temperature under light-protected conditions. The cells were then washed in binding buffer and were resuspended in the binding buffer and propidium iodide (PI) (5 μL) was added. The samples were analyzed by flow cytometry (FACS Calibur 4.1.6, Becton Dickinson): fluorescein-labeled annexin V at a 530 nm wavelength, and PI at a 585 nm wavelength. The percentage of cells was calculated by their distribution in a fluorescence dot plot generated with FCS Express 4 software (De Novo Software, Los Angeles, Calif., USA). Early (annexin V-positive) and late (annexin V+PI-positive) apoptotic cells were summed to yield the total number of apoptotic cells.

Hut78 cells [12] = test: FACS analysis with annexin V and PI staining (apoptosis), Hut78 cells
Protocol: as §9

[13] = long exposure 24 h, read-out: IC50 Long exposure
[14] = read-out: IC50 single treatment (HDACI), MTT 72 h, Table 4

CCCC(=O)OCOP(=O)(OCC)OCC [AN-7, Butyroyloxymethyl diethyl phosphate]
IC50 (MyLa cells [1]; 4 h then washout and 44 h, read-out: IC50 Short exposure): 141 ± 9.8 µM | IC50 (MyLa cells [1]; [13]): 159 ± 34.8 µM | IC50 short exposure/IC50 long exposure (Hut78 cells [2]): 1.3 | IC50 (Hut78 cells [2]; 4 h then washout and 20 h, read-out: IC50 Short exposure): 88 ± 4.6 µM | IC50 (Hut78 cells [2]; [13]): 67 ± 2.5 µM | apoptosis induction in SPBL ex vivo (SPBL): directed more SPBL cells into apoptotic death than SAHA | expression of pro-apoptotic proteins (western blot) [3]: cleavage of caspase 3 and poly ADP-ribose polymerase (PARP) and the production of P21 and Bax | HDAC1 expression level (HDAC1): downregulated | induction and clearance of p-KAP1 [4]: did not affect the expression of p-KAP1 and γH2AX | induction and clearance of γH2AX [4]: did not affect the expression of p-KAP1 and γH2AX | induction and persistence of p-KAP1 and γH2AX [5]: did not affect the expression of p-KAP1 and γH2AX | expression of NBS1, Mre11, Rad51 and DNA-PK [6]: did not affect the expression of DSB repair proteins | expression of NBS1 and DNA-PK [7]: did not affect the expression of DSB repair proteins | proportion of cells expressing GFP (frequency of HR repair of I-SceI-induced DSBs) (U2OS GFP-reporter cells): significantly reduce | IC50 (MyLa cells [8]; MyLa cells, MTT, 72 h): 120 ± 5.3 µM | selectivity vs NPBL by dose-response titration (MyLa cells [8]; MyLa vs NPBL, ANOVA with repeated measures): significantly selective | Selectivity index (SI) (MyLa cells [8]; SI=IC50 NPBL/IC50 MyLa): 1.7 | IC50 (MyLa cells [8]; read-out: IC50 single treatment (HDACI), MyLa, MTT 72 h, Table 4): 81.7 ± 4.4 µM | IC50 (Hut78 cells [9]; Hut78 cells, MTT, 72 h): 59 ± 4.3 µM | selectivity vs NPBL by dose-response titration (Hut78 cells [9]; Hut78 vs NPBL, ANOVA with repeated measures): significantly selective | Selectivity index (SI) (Hut78 cells [9]; SI=IC50 NPBL/IC50 Hut78): 3.4 | IC50 (Hut78 cells [9]; read-out: IC50 single treatment (HDACI), Hut78, MTT 72 h, Table 4): 59 ± 4.3 µM | Selectivity index (SI) ([10]; SI=IC50 NPBL/IC50 Sezary PBL): 3.56 | selectivity of induced death vs NPBL ([10]; SPBL vs NPBL, by IC50 values): selective death | IC50 ([10]; MTT, 72 h): 128 µM | lethality of high doses to SPBL ([10]; high doses, MTT 72 h): more lethal to SPBL than high doses of SAHA | IC50 [10, 14]: 128 ± 5.2 µM | IC50 (NPBL; MTT, 72 h): 200 ± 2.8 µM | NPBL survival at high doses (NPBL; high doses lethal to Hut78 and MyLa cells): 50% | IC50 (NPBL; [14]): 191 ± 26.1 µM | expression of acetylated H3 (Acetylated H3): induced | apoptosis (MyLa cells [11]; SAHA 10 μM or AN-7 300 μM): about 60% | apoptosis after short exposure compared to long exposure (fold less) (MyLa cells [11]; annexin V + PI): no significant difference | apoptosis after short exposure compared to long exposure (fold less) (Hut78 cells [12]; Hut78, annexin V + PI): no significant difference | apoptosis (Hut78 cells [12]; Hut78, SAHA 10 μM or AN-7 300 μM): about 60%

From patent publication US20170189376A1, “BUTYROYLOXYMETHYL DIETHYL PHOSPHATE COMPOUNDS AND USES THEREOF” (MOR RESEARCH APPLICATIONS LTD., priority 2016, published 2017)
